Key:
[1] = Singlet oxygen detection by photosensitized oxygenation of DPIBF; format: physicochemical; conditions: ethanol, red light 660 nm
Description: The second method of singlet oxygen detection was based on photosensitized oxygenation of the singlet oxygen conjugate 1,3-diphenylisobenzofuran (DPIBF) (Acros Organics, United Kingdom). DPIBF chemically binds to two singlet oxygens (^1O2) (FIG. 3). This method was applied to chlorin e4 sodium solutions in ethanol. The major absorption band of DPIBF is located at 414-415 nm. The molar absorption coefficient in this maximum, εDPIBF, is known to be 23500 M^−1 cm^−1. Tested solutions were irradiated by the monochromatic light from a xenon lamp using the excitation system of the spectrofluorimeter Perkin-Elmer MPF-44B, the spectral width of the monochromator bandwidth corresponding to 5 nm. Radiant power was measured using the calibrated detector ThorLabs PM-100 (Germany). The singlet oxygen quantum yields (ΦΔ) were calculated according to the equation: […]

[2] = system: breast cancer in the right breast; experiment: In vivo studies Example 9: patient, oral chlorin e4 sodium plus laser and LED light; set-up: species or system human
Experimental: A patient with breast cancer in the right breast was treated successfully. The treatment consisted of three courses. For each course, five doses of 62.5-187.5 mg chlorin e4 sodium were administered orally over the course of eight days. 24-48 hours after each oral dose of chlorin e4 sodium, the patient was treated with laser and LED light having a wavelength of 660 nm and 760 nm.

[3] = system: naso pharyngeal carcinoma with extension to a lymph node in the left neck; experiment: In vivo studies Example 2: patient, oral chlorin e4 sodium plus laser and LED light; set-up: species or system human
Experimental: A patient with naso pharyngeal carcinoma with extension to a lymph node in the left neck, was treated successfully. The treatment consisted of three courses. For each course, five doses of 62.5-187.5 mg chlorin e4 sodium were administered orally over the course of eight days. 24-48 hours after each oral dose of chlorin e4 sodium, the patient was treated with laser and LED light having a wavelength of 660 nm and 760 nm.
Subsequently the patient was treated with a further course. Again, for the course, five doses of 62.5-187.5 mg chlorin e4 sodium were administered orally over the course of eight days. 24-48 hours after each oral dose of chlorin e4 sodium, the patient was treated with laser and LED light having a wavelength of 660 nm and 760 nm.

C=Cc1c(C)c2cc3nc(c(C)c4[nH]c(cc5nc(cc1[nH]2)C(C)=C5CC)c(C)c4C(=O)O)[C@@H](CCC(=O)O)[C@@H]3C [chlorin e4 sodium]
Quantum yield of singlet oxygen generation [1]: 0.68±0.05 | Response of the breasts (mammography, ultrasound and PET/CT) ([2]; before and after three courses): complete response | Patient status ([2]; one year and seven months after starting, 10 months after completion of treatment): alive and well | Side effects ([2]; three courses): no side effects | Response (ultrasound images and biopsies) ([3]; after the final (fourth) treatment course): complete response | Biopsy of the treated lymph node of the neck ([3]; immediately following three courses, confirmed ten months after treatment): no cancer cells were detected | Comparison of CT scans ([3]; one month before and ten months after treatment): no spread of tumours and that the size of the tumours was reduced | Patient status ([3]; two years and six months after starting, five months after completion of treatment): alive and well

Reference: patent US20150315202A1, “CHLORIN DERIVATIVE USEFUL IN PHOTODYNAMIC THERAPY AND DIAGNOSIS” (RMW CHO GROUP LIMITED, priority 2012, published 2015)
